# Results as given in patent publication US11667651B2, “Aminopyridine derivatives as phosphatidylinositol phosphate kinase inhibitors” (HiberCell, Inc., priority 2017, dated 2023).
# What was measured:
# Type in all cases: biochemical
# [1] = target: T1, PIP4K2B (Homo sapiens, UniProt P78356); experiment: Trans-FI P kinase assay PIP4K2B (Table 4); conditions: compounds listed under IC50 bins; read-out: Trans-FI P kinase assays: PIP4K2B IC50
# T1 construct: made in house; host or cells: E. coli
# T1 sequence (P78356 1-416): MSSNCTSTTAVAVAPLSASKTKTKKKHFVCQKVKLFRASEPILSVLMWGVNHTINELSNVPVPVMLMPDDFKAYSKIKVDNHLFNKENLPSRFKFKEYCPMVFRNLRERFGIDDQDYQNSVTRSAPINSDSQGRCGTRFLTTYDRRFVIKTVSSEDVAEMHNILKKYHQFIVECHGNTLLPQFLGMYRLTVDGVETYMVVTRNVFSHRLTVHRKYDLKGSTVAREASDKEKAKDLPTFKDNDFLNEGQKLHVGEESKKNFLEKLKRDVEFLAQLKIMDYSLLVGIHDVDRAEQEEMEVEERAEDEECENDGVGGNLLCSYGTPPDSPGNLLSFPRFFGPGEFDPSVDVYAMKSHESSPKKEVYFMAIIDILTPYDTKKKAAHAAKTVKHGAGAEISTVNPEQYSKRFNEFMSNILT
# Method in brief: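 Transcreener FI detection (Ex 584/Em 623) of GDP, converted via calibration curve, gives IC50 from residual activity versus log concentration (highest 4.8 μM). Reaction: 80 μM PI5P plus DOPE carrier, 100 μM GTP, 5 nM GST-tagged enzyme, pH 7.3 HEPES with MgCl2 and 5% DMSO, 2 h after 1 h enzyme-compound preincubation at 27° C.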
# [2] = target: T2, PIP4K2A (Homo sapiens, UniProt P48426); experiment: ADP-glo kinase assay PIP4K 2A (Table 3); set-up: made in house; host or cells: E. coli; conditions: compounds listed under IC50 bins
# T2 sequence (P48426 1-406): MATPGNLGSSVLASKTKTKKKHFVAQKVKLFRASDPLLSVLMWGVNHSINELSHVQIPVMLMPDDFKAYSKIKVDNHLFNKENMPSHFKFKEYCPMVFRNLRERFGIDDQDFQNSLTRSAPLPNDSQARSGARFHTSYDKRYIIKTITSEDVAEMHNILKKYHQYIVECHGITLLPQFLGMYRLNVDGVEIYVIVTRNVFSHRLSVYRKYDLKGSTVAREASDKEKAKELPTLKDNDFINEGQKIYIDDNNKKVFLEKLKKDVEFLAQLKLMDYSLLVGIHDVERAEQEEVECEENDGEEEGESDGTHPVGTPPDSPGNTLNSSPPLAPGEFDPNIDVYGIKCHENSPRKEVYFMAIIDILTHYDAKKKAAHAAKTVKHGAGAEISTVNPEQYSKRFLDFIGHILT
# Method in brief: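 ADP-Glo luminescence detected ADP after 1 h RT reaction started by ATP (60 μM solution) on full-length PIP4K2A (4 nM in mix) and PI(5)P diC8 (100 μM in mix), preceded by 15 min enzyme-compound preincubation in MOPS pH 7.2/25 mM MgCl2. Percent inhibition versus DMSO over 10 concentrations fitted for IC50.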
# [3] = target: T2, PIP4K2A; experiment: Kinase Assay PIP4K2 A (Table 2); set-up: 4 nM PIP4K2A (full length protein, SignalChem); purchased SignalChem; conditions: compounds listed under IC50 bins
# Method in brief: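 ADP-Glo luminescent read-out after 1 h room-temperature kinase reaction, started with 60 μM ATP solution following 15 min compound pre-incubation. Enzyme/substrate mix: 4 nM full-length PIP4K2A plus 100 μM PI(5)P diC8; buffer MOPS pH 7.2 with 25 mM MgCl2 and Tween 20. IC50 from 10-point, 3-fold titrations normalized to DMSO.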
IC50 [1],IC50 [2],IC50 [3],Compound
> 1000 nM,> 1000 nM,> 1000 nM,"CN(C)C(=O)c1ccc(-c2ccc(Nc3ccc(N4CCOCC4)nc3)nc2)cc1 [Example 60, N,N-dimethyl-4-(6-((6-morpholinopyridin-3-yl)amino)pyridin-3-yl)benzamide]"
> 1000 nM,> 1000 nM,100 to 1000 nM,"O=C(c1cccc2ncc(Nc3ccc(-c4ccc(N5CCCC5=O)cc4)cn3)cc12)N1CCCC1 [Example 148, 1-(4-(6-((5-(pyrrolidine-1-carbonyl)quinolin-3-yl)amino)pyridin-3-yl)phenyl)pyrrolidin-2-one]"
10 to 100 nM,10 to 100 nM,10 to 100 nM,"COc1ccc(C(=O)Nc2cncc(Nc3ccc(-c4ccc(C(=O)N(C)C)cc4)cn3)c2)cc1 [Example 142, 4-(6-((5-(4-methoxybenzamido)pyridin-3-yl)amino)pyridin-3-yl)-N,N-dimethylbenzamide]"
10 to 100 nM,1 to 10 nM,1 to 10 nM,"O=C1CCCN1c1ccc(-c2ccc(Nc3cncc(N4CCN(Cc5cscn5)C4=O)c3)nc2)cc1 [Example 163, 1-(5-((5-(4-(2-oxopyrrolidin-1-yl)phenyl)pyridin-2-yl)amino)pyridin-3-yl)-3-(thiazol-4-ylmethyl)imidazolidin-2-one]"
10 to 100 nM,1 to 10 nM,1 to 10 nM,"CN(C)C(=O)c1ccc(-c2ccc(Nc3cncc(N4CCN(Cc5ccccc5)C4=O)c3)nc2)cc1 [Example 73, 4-(6-((5-(3-benzyl-2-oxoimidazolidin-1-yl)pyridin-3-yl)amino)pyridin-3-yl)-N,N-dimethylbenzamide]"
> 1000 nM,100 to 1000 nM,100 to 1000 nM,"O=C1C[C@H](O)CN1c1ccc(-c2ccc(Nc3cnc4c(c3)N3C(=O)CC[C@H]3CO4)nc2)cc1 [Example 237, (S)-2-((5-(4-((S)-4-hydroxy-2-oxopyrrolidin-1-yl)phenyl)pyridin-2-yl)amino)-6,6a,7,8-tetrahydro-9H-pyrido[2,3-b]pyrrolo[1,2-d][1,4]oxazin-9-one]"
1 to 10 nM,1 to 10 nM,1 to 10 nM,"O=C1CCCN1c1ccc(-c2cnc(Nc3cnc4c(c3)N3C(=O)CC[C@H]3CO4)cc2C2CC2)cc1 [Example 178, (S)-2-((4-cyclopropyl-5-(4-(2-oxopyrrolidin-1-yl)phenyl)pyridin-2-yl)amino)-6,6a,7,8-tetrahydro-9H-pyrido[2,3-b]pyrrolo[1,2-d][1,4]oxazin-9-one]"
> 1000 nM,> 1000 nM,> 1000 nM,"CN(C)C(=O)c1ccc(-c2ccc(Nc3ccc(CCN4CCOCC4)nc3)nc2)cc1 [Example 51, N,N-dimethyl-4-(6-((6-(2-morpholinoethyl)pyridin-3-yl)amino)pyridin-3-yl)benzamide]"
10 to 100 nM,100 to 1000 nM,10 to 100 nM,"COc1ncc(Nc2ccc(-c3ccc(N4CCCC4=O)cc3)cn2)cc1NS(C)(=O)=O [Example 159, N-(2-methoxy-5-((5-(4-(2-oxopyrrolidin-1-yl)phenyl)pyridin-2-yl)amino)pyridin-3-yl)methanesulfonamide]"
10 to 100 nM,10 to 100 nM,10 to 100 nM,"O=C1CCCN1c1ccc(-c2ccc(Nc3cncc(N4CCN(Cc5cocn5)C4=O)c3)nc2)cc1 [Example 165, 1-(oxazol-4-ylmethyl)-3-(5-((5-(4-(2-oxopyrrolidin-1-yl)phenyl)pyridin-2-yl)amino)pyridin-3-yl)imidazolidin-2-one]"
10 to 100 nM,100 to 1000 nM,10 to 100 nM,"CN(C)C(=O)c1ccc(-c2ccc(Nc3cncc(NC(=O)Cc4ccccc4)c3)nc2)cc1 [Example 123, N,N-dimethyl-4-(6-((5-(2-phenylacetamido)pyridin-3-yl)amino)pyridin-3-yl)benzamide]"
10 to 100 nM,10 to 100 nM,10 to 100 nM,"CN(C)C(=O)c1ccc(-c2ccc(Nc3cncc(NC(=O)c4ccc5cc[nH]c5c4)c3)nc2)cc1 [Example 135, N-(5-((5-(4-(dimethylcarbamoyl)phenyl)pyridin-2-yl)amino)pyridin-3-yl)-1H-indole-6-carboxamide]"
10 to 100 nM,10 to 100 nM,1 to 10 nM,"CC(C)C(=O)N1CCOc2ncc(Nc3ccc(-c4ccc(N5CCCC5=O)cc4)cn3)cc21 [Example 152, 1-(4-(6-((1-isobutyryl-2,3-dihydro-1H-pyrido[2,3-b][1,4]oxazin-7-yl)amino)pyridin-3-yl)phenyl)pyrrolidin-2-one]"
> 1000 nM,100 to 1000 nM,100 to 1000 nM,"CN(C)C/C=C/C(=O)NCC(=O)Nc1cccc(CCC(=O)Nc2cncc(Nc3ccc(-c4ccc(C(=O)N(C)C)cc4)cn3)c2)c1 [Example 108, (E)-4-(6-((5-(3-(3-(2-(4-(dimethylamino)but-2-enamido)acetamido)phenyl)propanamido)pyridin-3-yl)amino)pyridin-3-yl)-N,N-dimethylbenzamide]"
10 to 100 nM,100 to 1000 nM,10 to 100 nM,"CN(C)C(=O)c1ccc(-c2ccc(Nc3cncc(NC(=O)c4cccc(NC(=O)OC(C)(C)C)c4)c3)nc2)cc1 [Example 98, tert-butyl (3-((5-((5-(4-(dimethylcarbamoyl)phenyl)pyridin-2-yl)amino)pyridin-3-yl)carbamoyl)phenyl)carbamate]"
10 to 100 nM,10 to 100 nM,1 to 10 nM,"O=C1CCCN1c1ccc(-c2ccc(Nc3cnc4c(c3)N3C(=O)CC[C@@H]3CO4)nc2)cc1 [Example 85, (R)-2-((5-(4-(2-oxopyrrolidin-1-yl)phenyl)pyridin-2-yl)amino)-6,6a,7,8-tetrahydro-9H-pyrido[2,3-b]pyrrolo[1,2-d][1,4]oxazin-9-one]"
10 to 100 nM,10 to 100 nM,1 to 10 nM,"CN(C)C(=O)c1ccc(-c2ccc(Nc3cncc(NC(=O)c4cccc5[nH]ccc45)c3)nc2)cc1 [Example 143, N-(5-((5-(4-(dimethylcarbamoyl)phenyl)pyridin-2-yl)amino)pyridin-3-yl)-1H-indole-4-carboxamide]"
10 to 100 nM,10 to 100 nM,1 to 10 nM,"O=C1CCCN1c1ccc(-c2ccc(Nc3cnc4c(c3)N3C(=O)C(O)C[C@H]3CO4)nc2)cc1 (stereo partly drawn) [Example 268, (6aS)-8-hydroxy-2-((5-(4-(2-oxopyrrolidin-1-yl)phenyl)pyridin-2-yl)amino)-6,6a,7,8-tetrahydro-9H-pyrido[2,3-b]pyrrolo[1,2-d][1,4]oxazin-9-one]"
10 to 100 nM,100 to 1000 nM,10 to 100 nM,"CN(C)C(=O)c1ccc(-c2ccc(Nc3cncc(NC(=O)c4ccncc4)c3)nc2)cc1 [Example 130, N-(5-((5-(4-(dimethylcarbamoyl)phenyl)pyridin-2-yl)amino)pyridin-3-yl)isonicotinamide]"
10 to 100 nM,10 to 100 nM,10 to 100 nM,"O=C1CCCN1c1ccc(-c2ccc(Nc3cnc4c(c3)N(S(=O)(=O)C3CC3)CCO4)nc2)cc1 [Example 154, 1-(4-(6-((1-(cyclopropylsulfonyl)-2,3-dihydro-1H-pyrido[2,3-b][1,4]oxazin-7-yl)amino)pyridin-3-yl)phenyl)pyrrolidin-2-one]"
10 to 100 nM,1 to 10 nM,≤ 1 nM,"C[C@H](c1ccccc1)N1CCN(c2cncc(Nc3ccc(-c4ccc(C(=O)N(C)C)cc4)cn3)c2)C1=O [Example 81, (R)—N,N-dimethyl-4-(6-((5-(2-oxo-3-(1-phenylethyl)imidazolidin-1-yl)pyridin-3-yl)amino)pyridin-3-yl)benzamide]"
> 1000 nM,> 1000 nM,> 1000 nM,"COc1ncc(Nc2ccc(-c3ccc(N4CCCC4=O)cc3)cn2)cc1N(C)C(C)=O [Example 160, N-(2-methoxy-5-((5-(4-(2-oxopyrrolidin-1-yl)phenyl)pyridin-2-yl)amino)pyridin-3-yl)-N-methylacetamide]"
